In patent publication US12708640B2, “Synergistic nutritional compositions for treating vestibular associated neurodegenerative diseases” (CELAGENEX RESEARCH (INDIA) PVT. LTD., priority 2021, dated 2026):

Tests used:
Type in all cases: in vivo, Albino Wistar rat
[1] = system: sodium arsanilate induced vestibular dysfunction (Vertigo disorder) in wistar rats; test: Open field test; conditions: for Ambulation Score [the number of open-field sections entered by the rat], Average / Defecation [the number of fecal boli deposited in the open-field], Average / Grooming [the number of grooming bouts exhibited by the rat], Average / Rearing Responses [the number of times the animal raised both forefeet off the floor and extended its body], Average: group average of 6 animals; for % Improvement in Ambulation score wrt. G2 / % Improvement in Defecation wrt. G2 / % Improvement in Grooming wrt. G2 / % Improvement in Rearing Responses wrt. G2: open field test, wrt. disease control G2
Source text: (§1) “Evaluation of test substance on sodium arsanilate induced vestibular dysfunction (Vertigo disorder) in wistar rats”.
(§2) Vestibular dysfunction was induced in rats by intratympanic injection of sodium arsanilate an ototoxic compound. Sodium arsanilate is an arsenic derivative and intratympanic injection result was vestibular nerve degeneration in brain stem with concomitant loss of labyrinthine righting and reduced postural support with exaggerated head dorsiflexion.
(§3) All the animals were acclimatized for at least 5 days under controlled environmental condition. Total 42 animals were divided into seven groups consisting of 6 animals per group. Normal control (G1) group receiving vehicle, disease control (G2) group receiving sodium arsanilate injection only, standard group (G3) receiving reference standard (vertin) and treatment groups G4, G5, G6 & G7 were treated with the test substances. All the groups (except normal control group) were induced with sodium arsanilate via intratymphanic injection. All the treatment groups were administered daily for 7 consecutive days.
The open-field was circular, with a diameter of 90 cm, and enclosed by a wall 30 cm high. The floor and wall of the open-field was black and the floor was divided into 25 equal area sections by thin white lines. The floor was covered with a transparent plastic coating. The open-field apparatus was located inside a large wooden frame which surrounded on all sides by black curtains. The field was illuminated by two 60-W fluorescent lights located 100 cm above the floor.
At the start of each session the rats were placed in one of the peripheral sections of the open-field and the animal's behavior was monitored by an observer for 10 consecutive minutes. […] At the end of each session the rat was returned to its home cage and the floor of the open-field was cleaned and sponged over with a weak vinegar solution to remove any residual odors.

[2] = system: sodium arsanilate induced vestibular dysfunction (Vertigo disorder) in wistar rats; test: Air righting reflex (air reflecting index); conditions: for Air Righting Reflex (% of Rats that successfully righted themselves within 5 s), Average: group average of 6 animals
Source text: as §1, §2, §3
A sponge was spread on a flat surface and the animals were placed in a supine position in the air 50 cm away above the sponge, following which the animal was dropped horizontally.
Four-legged smooth landing on the ground was considered as positive (normal animal), whereas the body or other regions landing first was considered vestibular dysfunction animals. The positive landing rate (%) of each rat in each group was recorded.

[3] = system: sodium arsanilate induced vestibular dysfunction (Vertigo disorder) in wistar rats; test: Contact righting reflex; conditions: for Contact righting reflex (time), Average: group average of 6 animals
Source text: as §1, §2, §3
The rats were placed in a syringe core tube in a supine position, following which the recovery time for position correction to be recorded. Normal rats turned over their body position in a few seconds.

[4] = Rat body weight in the sodium arsanilate vestibular dysfunction study; conditions: rats, group value; for Body Weight, End of the treatment: after 7 days daily treatment
Source text: as §1
(§4) • Test Species: Rat • Strain: Albino Wistar • Sex: Male/Female • Age: 6-8 Weeks • Body Weight: 180-200 g • Source: In house breed • Total No. of Animals: 42 Animals (7 groups of 6 animals each) • Feed: Normal chow diet (Purina lab diet 5L79 Rat and Mouse 18%) (PMI Nutrition International) Environmental Conditions:
as §3
Individual body weights were recorded at receipt, on the day of randomization, on the first day of treatment before dosing and weekly once thereafter throughout the treatment period. The body weight changes for all the animals were calculated and reported along with the body weight data.

[5] = Rat feed consumption in the sodium arsanilate vestibular dysfunction study; conditions: rats, group value
Source text: as §1, §4, §3
The feed consumption was calculated and reported on a daily basis throughout the study period.

[6] = animal 1, end of 7-day treatment
[7] = animal 2, end of 7-day treatment
[8] = animal 3, end of 7-day treatment
[9] = animal 4, end of 7-day treatment
[10] = animal 5, end of 7-day treatment
[11] = animal 6, end of 7-day treatment
[12] = animal 1, recovery time for position correction
[13] = animal 2, recovery time for position correction
[14] = animal 3, recovery time for position correction
[15] = animal 4, recovery time for position correction
[16] = animal 5, recovery time for position correction
[17] = animal 6, recovery time for position correction

SMILES: CC(=O)NC(CC(C)C)C(=O)O (racemic) [Group 4, N-Acetyl-DL-leucine enantiomerically enriched (EE) with L-leucine]
- Ambulation Score [the number of open-field sections entered by the rat] ([1]; animal 1): 210
- Defecation [the number of fecal boli deposited in the open-field] ([1]; animal 1): 2
- Grooming [the number of grooming bouts exhibited by the rat] ([1]; animal 1): 3
- Rearing Responses [the number of times the animal raised both forefeet off the floor and extended its body] ([1]; animal 1): 4
- Ambulation Score [the number of open-field sections entered by the rat] ([1]; animal 2): 200
- Defecation [the number of fecal boli deposited in the open-field] ([1]; animal 2): 3
- Grooming [the number of grooming bouts exhibited by the rat] ([1]; animal 2): 4
- Rearing Responses [the number of times the animal raised both forefeet off the floor and extended its body] ([1]; animal 2): 3
- Ambulation Score [the number of open-field sections entered by the rat] ([1]; animal 3): 220
- Defecation [the number of fecal boli deposited in the open-field] ([1]; animal 3): 4
- Grooming [the number of grooming bouts exhibited by the rat] ([1]; animal 3): 3
- Rearing Responses [the number of times the animal raised both forefeet off the floor and extended its body] ([1]; animal 3): 5
- Ambulation Score [the number of open-field sections entered by the rat] ([1]; animal 4): 220
- Defecation [the number of fecal boli deposited in the open-field] ([1]; animal 4): 2
- Grooming [the number of grooming bouts exhibited by the rat] ([1]; animal 4): 3
- Rearing Responses [the number of times the animal raised both forefeet off the floor and extended its body] ([1]; animal 4): 4
- Ambulation Score [the number of open-field sections entered by the rat] ([1]; animal 5): 210
- Defecation [the number of fecal boli deposited in the open-field] ([1]; animal 5): 3
- Grooming [the number of grooming bouts exhibited by the rat] ([1]; animal 5): 4
- Rearing Responses [the number of times the animal raised both forefeet off the floor and extended its body] ([1]; animal 5): 6
- Ambulation Score [the number of open-field sections entered by the rat] ([1]; animal 6): 220
- Defecation [the number of fecal boli deposited in the open-field] ([1]; animal 6): 4
- Grooming [the number of grooming bouts exhibited by the rat] ([1]; animal 6): 2
- Rearing Responses [the number of times the animal raised both forefeet off the floor and extended its body] ([1]; animal 6): 4
- Ambulation Score [the number of open-field sections entered by the rat], Average [1]: 213.33
- Defecation [the number of fecal boli deposited in the open-field], Average [1]: 3.00
- Grooming [the number of grooming bouts exhibited by the rat], Average [1]: 3.17
- Rearing Responses [the number of times the animal raised both forefeet off the floor and extended its body], Average [1]: 4.33
- % Improvement in Ambulation score wrt. G2 [1]: 15.23%
- % Improvement in Defecation wrt. G2 [1]: 30.77%
- % Improvement in Grooming wrt. G2 [1]: 59.57%
- % Improvement in Rearing Responses wrt. G2 [1]: 40.62%
- Air Righting Reflex (% successfully righted within 5 s) ([2]; animal 1): 40%
- Air Righting Reflex, Successful out of 5 [2, 6]: 2
- Air Righting Reflex (% successfully righted within 5 s) ([2]; animal 2): 60%
- Air Righting Reflex, Successful out of 5 [2, 7]: 3
- Air Righting Reflex (% successfully righted within 5 s) ([2]; animal 3): 40%
- Air Righting Reflex, Successful out of 5 [2, 8]: 2
- Air Righting Reflex (% successfully righted within 5 s) ([2]; animal 4): 40%
- Air Righting Reflex, Successful out of 5 [2, 9]: 2
- Air Righting Reflex (% successfully righted within 5 s) ([2]; animal 5): 60%
- Air Righting Reflex, Successful out of 5 [2, 10]: 3
- Air Righting Reflex (% successfully righted within 5 s) ([2]; animal 6): 40%
- Air Righting Reflex, Successful out of 5 [2, 11]: 2
- Air Righting Reflex (% of Rats that successfully righted themselves within 5 s), Average [2]: 46.67%
- Contact righting reflex (time) [3, 12]: 27 s
- Contact righting reflex (time) [3, 13]: 26 s
- Contact righting reflex (time) [3, 14]: 25 s
- Contact righting reflex (time) [3, 15]: 28 s
- Contact righting reflex (time) [3, 16]: 27 s
- Contact righting reflex (time) [3, 17]: 28 s
- Contact righting reflex (time), Average [3]: 26.83 s
- contact righting reflex, improvement (wrt. the Disease Control) [3]: up to 34%
- Body Weight, End of the treatment [4]: 190.77 gm
- Body Weight, Initial [4]: 189.15 gm
- Feed Consumption, 0 day [5]: 16.00 gm
- Feed Consumption, 7th day [5]: 16.67 gm

SMILES: CNCCc1ccccn1 [Group 3, reference compound]
- Ambulation Score [the number of open-field sections entered by the rat] ([1]; animal 1): 200
- Defecation [the number of fecal boli deposited in the open-field] ([1]; animal 1): 3
- Grooming [the number of grooming bouts exhibited by the rat] ([1]; animal 1): 4
- Rearing Responses [the number of times the animal raised both forefeet off the floor and extended its body] ([1]; animal 1): 5
- Ambulation Score [the number of open-field sections entered by the rat] ([1]; animal 2): 210
- Defecation [the number of fecal boli deposited in the open-field] ([1]; animal 2): 4
- Grooming [the number of grooming bouts exhibited by the rat] ([1]; animal 2): 3
- Rearing Responses [the number of times the animal raised both forefeet off the floor and extended its body] ([1]; animal 2): 4
- Ambulation Score [the number of open-field sections entered by the rat] ([1]; animal 3): 215
- Defecation [the number of fecal boli deposited in the open-field] ([1]; animal 3): 2
- Grooming [the number of grooming bouts exhibited by the rat] ([1]; animal 3): 3
- Rearing Responses [the number of times the animal raised both forefeet off the floor and extended its body] ([1]; animal 3): 6
- Ambulation Score [the number of open-field sections entered by the rat] ([1]; animal 4): 230
- Defecation [the number of fecal boli deposited in the open-field] ([1]; animal 4): 3
- Grooming [the number of grooming bouts exhibited by the rat] ([1]; animal 4): 5
- Rearing Responses [the number of times the animal raised both forefeet off the floor and extended its body] ([1]; animal 4): 4
- Ambulation Score [the number of open-field sections entered by the rat] ([1]; animal 5): 220
- Defecation [the number of fecal boli deposited in the open-field] ([1]; animal 5): 4
- Grooming [the number of grooming bouts exhibited by the rat] ([1]; animal 5): 6
- Rearing Responses [the number of times the animal raised both forefeet off the floor and extended its body] ([1]; animal 5): 5
- Ambulation Score [the number of open-field sections entered by the rat] ([1]; animal 6): 225
- Defecation [the number of fecal boli deposited in the open-field] ([1]; animal 6): 3
- Grooming [the number of grooming bouts exhibited by the rat] ([1]; animal 6): 5
- Rearing Responses [the number of times the animal raised both forefeet off the floor and extended its body] ([1]; animal 6): 4
- Ambulation Score [the number of open-field sections entered by the rat], Average [1]: 216.67
- Defecation [the number of fecal boli deposited in the open-field], Average [1]: 3.17
- Grooming [the number of grooming bouts exhibited by the rat], Average [1]: 4.33
- Rearing Responses [the number of times the animal raised both forefeet off the floor and extended its body], Average [1]: 4.67
- % Improvement in Ambulation score wrt. G2 [1]: 13.91%
- % Improvement in Defecation wrt. G2 [1]: 26.92%
- % Improvement in Grooming wrt. G2 [1]: 44.68%
- % Improvement in Rearing Responses wrt. G2 [1]: 43.75%
- Air Righting Reflex (% successfully righted within 5 s) ([2]; animal 1): 40%
- Air Righting Reflex, Successful out of 5 [2, 6]: 2
- Air Righting Reflex (% successfully righted within 5 s) ([2]; animal 2): 60%
- Air Righting Reflex, Successful out of 5 [2, 7]: 3
- Air Righting Reflex (% successfully righted within 5 s) ([2]; animal 3): 40%
- Air Righting Reflex, Successful out of 5 [2, 8]: 2
- Air Righting Reflex (% successfully righted within 5 s) ([2]; animal 4): 60%
- Air Righting Reflex, Successful out of 5 [2, 9]: 3
- Air Righting Reflex (% successfully righted within 5 s) ([2]; animal 5): 40%
- Air Righting Reflex, Successful out of 5 [2, 10]: 2
- Air Righting Reflex (% successfully righted within 5 s) ([2]; animal 6): 60%
- Air Righting Reflex, Successful out of 5 [2, 11]: 3
- Air Righting Reflex (% of Rats that successfully righted themselves within 5 s), Average [2]: 50.00%
- Contact righting reflex (time) [3, 12]: 21 s
- Contact righting reflex (time) [3, 13]: 26 s
- Contact righting reflex (time) [3, 14]: 28 s
- Contact righting reflex (time) [3, 15]: 23 s
- Contact righting reflex (time) [3, 16]: 27 s
- Contact righting reflex (time) [3, 17]: 26 s
- Contact righting reflex (time), Average [3]: 25.17 s
- contact righting reflex, improvement (wrt. the Disease Control) [3]: around 38%
- Body Weight, End of the treatment [4]: 188.10 gm
- Body Weight, Initial [4]: 186.83 gm
- Feed Consumption, 0 day [5]: 15.33 gm
- Feed Consumption, 7th day [5]: 16.00 gm
